Reference: US10196389B2, “One class of pyrazolone compounds and use thereof” (SHANGHAI INSTITUTE OF MATERIA MEDICA, CHINESE ACADEMY OF …, priority 2014, dated 2019)
pEC50: −log10 of the molar value.

What follows are compounds tested against T1, human AMPK (α2β1γ1) (Homo sapiens, UniProt P54619+P54646+Q9Y478) (assay: AMPK (α2β1γ1) activation at molecular level, HTRF KinEASE-STK S1 kinase assay). Conditions: Table 1 and FIG. 1.
T1 construct: made in house; host or cells: E. coli
Type: biochemical
Procedure: 1. Purpose of the experiment: To screen small molecule compounds that can activate AMPK (α2β1γ1).
2. Principle of the experiment: The peptide as substrate contains sites which can be AMPK phosphorylated. One terminal of the peptide is linked with biotin in the reaction system (containing 2 mM MgCl2, 400 μM DTT, 160 nM substrate peptide, 4 μM ATP and 1.6 nM AMPK). In the biotinylated terminal, biotin can link with streptavidin-XL665 (acceptor) so as to complete the labeling. After 45 minute of phosphorylation reaction, the phosphorylated substrate (i.e., product) can bind to an antibody (labeled Donor) which recognizes the phosphorylating site, and the biotin on the other terminal can linked to streptavidin-XL665 (acceptor) so that the resulting FRET signal can be detected with PE Evision. The final AMPK activity is expressed as a ratio of the 665 nm wavelength reading to the 615 nm wavelength reading (665 nm/615 nm).
3. Detection reagent: The human AMPK (α2β1γ1) protein was obtained by expression using an E. coli expression system and purification. HTRF KinEASE-STK S1 kit (purchased from Cisbio's); ATP (purchased from Sigma).
1) 200 nM AMPK (α2β1γ1) protein was incubated with 200 nM CaMKKβ at 30° C. for 4 hours in water bath to completely phosphorylate AMPK.
2) The enzyme reaction system (2 mM MgCl2, […], 160 nM substrate peptide, 4 µM ATP, and 1.6 nM AMPK) was prepared by using a white shallow plate purchased from PE. The reaction was reacted at 30° C. for 45 minutes. Phosphorylated recognizing peptides of the antibody and the XL665 Detection buffer were added and the mixture was incubated at room temperature for 3 hours before the signals were detected.

T1 sequence (P54646 whole entry): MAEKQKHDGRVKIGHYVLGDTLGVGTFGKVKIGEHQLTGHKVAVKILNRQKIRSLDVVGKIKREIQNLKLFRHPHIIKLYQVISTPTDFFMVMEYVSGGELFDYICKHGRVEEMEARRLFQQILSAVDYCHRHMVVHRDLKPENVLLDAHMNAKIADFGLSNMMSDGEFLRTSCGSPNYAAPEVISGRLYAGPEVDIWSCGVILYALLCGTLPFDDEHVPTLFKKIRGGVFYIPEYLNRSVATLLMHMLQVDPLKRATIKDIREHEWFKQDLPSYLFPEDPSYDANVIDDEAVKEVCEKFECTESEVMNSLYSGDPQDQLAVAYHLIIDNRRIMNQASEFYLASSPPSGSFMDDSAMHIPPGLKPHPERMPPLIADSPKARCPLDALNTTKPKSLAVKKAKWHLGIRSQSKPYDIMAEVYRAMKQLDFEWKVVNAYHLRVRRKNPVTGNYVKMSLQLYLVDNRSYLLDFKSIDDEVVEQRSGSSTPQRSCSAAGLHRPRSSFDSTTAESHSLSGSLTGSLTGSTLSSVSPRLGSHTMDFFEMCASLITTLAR
T1 sequence (Q9Y478 whole entry): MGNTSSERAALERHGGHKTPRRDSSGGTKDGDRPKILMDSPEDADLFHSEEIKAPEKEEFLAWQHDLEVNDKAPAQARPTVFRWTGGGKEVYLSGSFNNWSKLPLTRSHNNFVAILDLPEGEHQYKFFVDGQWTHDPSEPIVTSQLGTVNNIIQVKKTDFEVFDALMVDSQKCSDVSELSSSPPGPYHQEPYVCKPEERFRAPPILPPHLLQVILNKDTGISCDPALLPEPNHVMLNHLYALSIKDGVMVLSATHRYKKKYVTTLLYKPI
T1 sequence (P54619 whole entry): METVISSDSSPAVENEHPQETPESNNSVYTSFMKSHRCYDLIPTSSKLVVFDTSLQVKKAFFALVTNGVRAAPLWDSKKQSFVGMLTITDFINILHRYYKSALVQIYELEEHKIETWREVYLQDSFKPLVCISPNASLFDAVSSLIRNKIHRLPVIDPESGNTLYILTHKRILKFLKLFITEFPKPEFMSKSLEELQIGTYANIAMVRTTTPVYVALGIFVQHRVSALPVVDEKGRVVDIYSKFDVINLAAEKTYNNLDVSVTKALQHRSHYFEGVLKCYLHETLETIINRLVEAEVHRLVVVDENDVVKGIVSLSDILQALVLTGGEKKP

Row | SMILES | allosteric activation of AMPK in molecular level
1 | COc1ccc(CNC(=O)c2ccc(CN3C=C4C(=O)N(c5ccc(F)c(C(F)(F)F)c5)N=C4CC3)cc2)cc1OC [ZM-1] | significantly and allosterically activate AMPK

Same assay, conditions: activation of human AMPK (α2β1γ1), 4 μM ATP, 45 min at 30° C.

Row | SMILES | Activation ratio (Fold) | pEC50
2 | Nc1ncnc2c1ncn2[C@@H]1O[C@H](COP(=O)(O)O)[C@@H](O)[C@H]1O [AMP, reference compound] | 2.6 | 6.52
3 | COc1ccc(CNC(=O)c2ccc(CN3C=C4C(=O)N(c5ccc(F)c(C(F)(F)F)c5)N=C4CC3)cc2)cc1OC [ZM-1] | 3.3 | 5.68
4 | COC(=O)c1ccc(CN2C=C3C(=O)N(c4ccc(F)c(C(F)(F)F)c4)N=C3CC2)cc1 [ZM-2, Methyl 4-((2-(4-fluoro-3-(trifluoromethyl)phenyl)-3-oxo-6,7-dihydro-2H-pyrazolo[4,3-c]pyridin-5(3H)-yl)methyl)benzoic acid] |  | 5.24
5 | COC(=O)c1ccc(CN2CCC3=NN(c4ccc(F)c(C(F)(F)F)c4)C(=O)C3C2)cc1 (stereo not drawn) [ZM-3, Methyl 4-((2-(4-fluoro-3-(trifluoromethyl)phenyl)-3-oxo-3a,4,6,7-tetrahydro-2H-pyrazolo[4,3-c]pyridin-5(3H)-yl)methyl)benzoic acid] |  | 5.01
6 | COC(=O)c1cccc(CN2CCC3=NN(c4ccc(F)c(C(F)(F)F)c4)C(=O)C3C2)c1 (stereo not drawn) [ZM-4] | 3.2 | 5.08
7 | COc1ccc(CNC(=O)c2ccc(CN3CCc4c(c(=O)n(-c5ccc(F)c(C(F)(F)F)c5)n4C)C3)cc2)cc1OC [ZM-5] | 3.6 | 5.48
8 | COc1ccc(CN(C)C(=O)c2ccc(CN3C=C4C(=O)N(c5ccc(F)c(C(F)(F)F)c5)N=C4CC3)cc2)cc1OC [ZM-6] | 3.0 | 5.96
9 | COc1ccc(CNC(=O)c2cccc(CN3C=C4C(=O)N(c5ccc(F)c(C(F)(F)F)c5)N=C4CC3)c2)cc1OC [ZM-7] | 2.7 | 5.34
10 | O=C(NCc1ccccc1)c1ccc(CN2C=C3C(=O)N(c4ccc(F)c(C(F)(F)F)c4)N=C3CC2)cc1 [ZM-8] | 3.0 | 5.07
11 | COc1cccc(CNC(=O)c2ccc(CN3C=C4C(=O)N(c5ccc(F)c(C(F)(F)F)c5)N=C4CC3)cc2)c1 [ZM-9] | 2.8 | 5.28
12 | CCNC(=O)c1ccc(CN2C=C3C(=O)N(c4ccc(F)c(C(F)(F)F)c4)N=C3CC2)cc1 [ZM-10] | 2.7 | 5.00
13 | COc1cc(CNC(=O)c2ccc(CN3C=C4C(=O)N(c5ccc(F)c(C(F)(F)F)c5)N=C4CC3)cc2)cc(OC)c1OC [ZM-11] | 3.5 | 5.12
14 | O=C(NCc1ccc2c(c1)OCO2)c1ccc(CN2C=C3C(=O)N(c4ccc(F)c(C(F)(F)F)c4)N=C3CC2)cc1 [ZM-12] | 3.0 | 5.30
15 | O=C(NCc1cccc2c1OCO2)c1ccc(CN2C=C3C(=O)N(c4ccc(F)c(C(F)(F)F)c4)N=C3CC2)cc1 [ZM-13] | 2.5 | 5.48
16 | C[C@@H](NC(=O)c1ccc(CN2C=C3C(=O)N(c4ccc(F)c(C(F)(F)F)c4)N=C3CC2)cc1)c1ccccc1 [ZM-14] | 2.5 | 5.01
17 | O=C(NCC1CCCCC1)c1ccc(CN2C=C3C(=O)N(c4ccc(F)c(C(F)(F)F)c4)N=C3CC2)cc1 [ZM-15] | 2.2 | 5.24
18 | COc1ccc(CNC(=O)c2ccc(CN3C=C4C(=O)N(c5cccc(C(F)(F)F)c5)N=C4CC3)cc2)cc1OC [ZM-16] | 3.2 | 5.25
19 | COc1ccc(CNC(=O)c2ccc(CN3C=C4C(=O)N(c5ccc(S(N)(=O)=O)cc5)N=C4CC3)cc2)cc1OC [ZM-17] | 2.1 | 5.02

Row | SMILES | Activation ratio (Fold) | pEC50
20 | COc1ccc(CNC(=O)c2ccc(CN3C=C4C(=O)N(c5nc6ccccc6s5)N=C4CC3)cc2)cc1OC [ZM-18] | 2.8 | 5.20
21 | COc1ccc(CNC(=O)c2ccc(CN3C=C4C(=O)N(c5ccc(F)c(C(F)(F)F)c5)N=C4CC3)c(C)c2)cc1OC [ZM-19] | 2.6 | 5.25
22 | COc1cc(F)c(CNC(=O)c2ccc(CN3C=C4C(=O)N(c5ccc(F)c(C(F)(F)F)c5)N=C4CC3)cc2)cc1OC [ZM-20] | 2.8 | 5.36
23 | COc1ccc(C(C)(C)NC(=O)c2ccc(CN3C=C4C(=O)N(c5ccc(F)c(C(F)(F)F)c5)N=C4CC3)cc2)cc1OC [ZM-21] | 2.2 | 5.40
24 | CCOc1cc(CNC(=O)c2ccc(CN3C=C4C(=O)N(c5ccc(F)c(C(F)(F)F)c5)N=C4CC3)cc2)ccc1OC [ZM-22] | 2.9 | 5.17
25 | CCOc1ccc(CNC(=O)c2ccc(CN3C=C4C(=O)N(c5ccc(F)c(C(F)(F)F)c5)N=C4CC3)cc2)cc1OC [ZM-23] | 3.0 | 5.27
26 | CCOc1ccc(CNC(=O)c2ccc(CN3CCc4c(c(=O)n(-c5ccc(F)c(C(F)(F)F)c5)n4C)C3)cc2)cc1OC [ZM-24] | 2.8 | 5.60
27 | COc1cc(CNC(=O)c2ccc(CN3CCc4c(c(=O)n(-c5ccc(F)c(C(F)(F)F)c5)n4C)C3)cc2)ccc1OC(C)C [ZM-25] | 3.1 | 5.60
28 | CCOc1cc(CNC(=O)c2ccc(CN3CCc4c(c(=O)n(-c5ccc(F)c(C(F)(F)F)c5)n4C)C3)cc2)ccc1OC [ZM-26] | 2.3 | 5.52
29 | COc1cc(CNC(=O)c2ccc(CN3C=C4C(=O)N(c5ccc(F)c(C(F)(F)F)c5)N=C4CC3)cc2)ccc1OC(F)F [ZM-27] | 2.3 | 5.30
30 | COc1ccc(C2(NC(=O)c3ccc(CN4C=C5C(=O)N(c6ccc(F)c(C(F)(F)F)c6)N=C5CC4)cc3)CC2)cc1OC [ZM-28] | 2.6 | 5.49
31 | COc1cc(CNC(=O)c2ccc(CN3C=C4C(=O)N(c5ccc(F)c(C(F)(F)F)c5)N=C4CC3)cc2)ccc1OC(C)C [ZM-29] | 2.9 | 5.01
32 | COc1cc(CNC(=O)c2ccc(CN3C=C4C(=O)N(c5ccc(F)c(C(F)(F)F)c5)N=C4CC3)cc2)ccc1O [ZM-30] | 2.7 | 5.07
33 | O=C(NCc1ccc(OC(F)F)c(OC(F)F)c1)c1ccc(CN2C=C3C(=O)N(c4ccc(F)c(C(F)(F)F)c4)N=C3CC2)cc1 [ZM-31] | 3.1 | 5.27
34 | COc1ccc(CNC(=O)c2ccc(CN3C=C4C(=O)N(c5ccc(F)c(C(F)(F)F)c5)N=C4CC3)cc2)cc1OC(F)F [ZM-32] | 2.4 | 5.39
35 | COc1ccc(CNC(=O)c2ccc(CN3CCC4=NN(c5ccc(F)c(C(F)(F)F)c5)C(=O)C4(C)C3)cc2)cc1OC (stereo not drawn) [ZM-33] | 2.7 | 5.11
36 | [2H]C([2H])([2H])Oc1ccc(CNC(=O)c2ccc(CN3C=C4C(=O)N(c5ccc(F)c(C(F)(F)F)c5)N=C4CC3)cc2)cc1OC [ZM-34] | 2.1 | 5.20

Each compound was assayed on AMPK and ACC phosphorylation on L6 myotubes (assay: AMPK and ACC phosphorylation on L6 myotubes (western blot)). Conditions: L6 muscle cells treated for 1 hour, FIGS. 2A and 2B.
Type: cell-based
Procedure: (§1) 2. Experimental principle: Small molecule compounds allosterically activate AMPK and cause the phosphorylation of substrate acetyl-CoA carboxylase (ACC) at Ser-79-site.
(§2) 3. Detection reagents: AMPK, phospho-AMPK (T172), phospho-ACC (S79), and total ACC antibodies were purchased from Cell Signaling Technology.
(§3) 1) The cells were exchanged into serum-free medium and starved for two hours, and compounds were added to treat (in 0.4% DMSO) for 1 hour. The cells to be harvested were washed with PBS once. 1×SDS gel loading buffer (50 mM Tris (pH6.8), 100 mM DTT, 2% SDS, 10% glycerol, 0.1% bromophenol blue) was added to lysis cells (24 well plates, […] per well).
(§4) 2) The sample was heated at 100° C. for 10 minutes and then centrifuged at 12000 g for 10 minutes. The supernatant was subjected to SDS-PAGE electrophoresis under following condition: spacer gel: 70 volts, and separation gel: 90 volts.
(§5) 3) After electrophoresis, the proteins were transferred onto nitrocellulose membrane using Biorad wet electrical transduction system. After the desired band was cut, the strips were blocked in a blocking solution (TBST, containing 5% BSA) for 1 hour at room temperature. The strips were place in a solution containing the primary antibody and incubated overnight at 4° C.
(§6) 4) On next day, the target band was placed in TBST and washed at room temperature for 10 minutes (3 times). […]

Row | SMILES | AMPK activation at the cellular level | downstream phosphorylation levels of ACC
37 | COc1ccc(CNC(=O)c2ccc(CN3C=C4C(=O)N(c5ccc(F)c(C(F)(F)F)c5)N=C4CC3)cc2)cc1OC [ZM-1] | dose-dependently activated | increased accordingly

What follows are compounds tested on AMPK and ACC phosphorylation on HepG2 cells (assay: AMPK and ACC phosphorylation on HepG2 cells (western blot)). Conditions: different concentrations, FIG. 3.
Type: cell-based
Procedure: as §1, §2, §3, §4, §5, §6

Row | SMILES | AMPK activation | phosphorylation of ACC
38 | COc1ccc(CNC(=O)c2ccc(CN3C=C4C(=O)N(c5ccc(F)c(C(F)(F)F)c5)N=C4CC3)cc2)cc1OC [ZM-1] | activate AMPK | upregulate phosphorylation of ACC in a concentration or gradient dependent manner

These compounds were tested on AMPK and ACC phosphorylation on SD rat primary hepatocytes (assay: AMPK and ACC phosphorylation on SD rat primary hepatocytes (western blot)). Conditions: primary hepatocytes of SD rats, different concentrations, FIG. 4.
Type: cell-based
Procedure: as §1, §2, §3, §4, §5, §6

Row | SMILES | AMPK activation | phosphorylation of ACC
39 | COc1ccc(CNC(=O)c2ccc(CN3C=C4C(=O)N(c5ccc(F)c(C(F)(F)F)c5)N=C4CC3)cc2)cc1OC [ZM-1] | activate AMPK | upregulate phosphorylation of ACC in a concentration or gradient dependent manner
